# Reference: patent publication US10077238B2, “Small molecule LFA-1 inhibitors” (ALLOCYTE PHARMACEUTICALS AG, priority 2014, dated 2018)
# Several values for one entry are separate records, joined by “and”; a condition that tells them apart may be missing. Equal values may be shown once.
# Key:
# Format in all cases: cell-based
# LFA-1 [1] = molecular target: T1, LFA-1 (Homo sapiens, UniProt P20701); test: V well cell adhesion assay, LFA-1-mediated Jurkat cell binding to ICAM-1 (LFA-1 adhesion); settings: Jurkat cells on ICAM-1/Fc; mean ±SD of ≥3 independent experiments in triplicates or single experiments in triplicates
# T1 construct: endogenous in cells; host or cells: Jurkat cells
# Protocol: Cell-Based Assay to Determine the Effect of the Compounds on LFA-1-Mediated Cell Adhesion (LFA-1 Adhesion)
# Purpose of the Assay: The V well cell adhesion assay measures the ability of the compounds to interfere with LFA-1-mediated binding to ICAM-1 at cellular level. The assay has been successfully used in the past to identify and characterize small molecules LFA-1 inhibitors.
# Experimental Protocol: The adhesion assay was performed in Vbottom 96-well plates as described previously [Weitz-Schmidt 2012]. Briefly, the plates were coated with anti-human IgG mAb diluted in coating buffer (20 mM Tris containing 150 mM NaCl, pH 8) (1 μg/mL) and incubated overnight at 4° C. The plates were flicked out and blocked with blocking buffer (50 mM Tris base, 150 mM NaCl, 1.5% BSA (w/v), pH 7.2) at 37° C. for 90 min. Then human recombinant ICAM-1/Fc (R&D Systems) diluted in coating buffer (0.3 μg/mL) was added to each well. The plates were incubated at 37° C. for 90 min and washed with binding buffer (50 mM Tris base, 150 mM NaCl, 1.5% BSA (w/v), 2 mM MgCl2, 2 mM MnCl2, 5 mM D-glucose monohydrate, pH 7.2-7.4) to remove unbound ligand.
# Jurkat cells were cultured under standard conditions as recommended by the American Type Culture collection (ATCC). The cells were fluorescently labelled with BCECF-AM in PBS (1 μg/mL) at 37° C. for 20 min in the dark, centrifuged and washed with PBS. The test compounds were dissolved in DMSO at 10 mM and serially pre-diluted in DMSO (100%) to avoid precipitation, before performing final dilution steps in binding buffer.
# The labelled Jurkat cells were re-suspended in binding buffer and test compounds or solvent control were added. The DMSO concentration was kept constant in all samples (1% DMSO as final assay concentration). After 40 min at 37° C. (LFA-1 activation and compound pre-incubation step) the cell suspension (3×10^5 cells/mL in binding buffer) was pipetted up and down and transferred to the ligand-coated microtiter V well plates (30 000 cells/well). The plates were centrifuged for 4 min at room temperature (rt) at 1000 rpm (Centrifuge Eppendorf 5810 R), setting the brake off Non-adherent cells that accumulated in the center of the Vbottom were quantified using a fluorescence reader with the filter sets allowing excitation at 485 nm and quantification of emission at 535 nm. The determination of the half maximal inhibitory concentration (IC50) of the compounds was calculated using the software GraphPad Prism 6.
# VLA-4 = molecular target: T2, VLA-4 (Homo sapiens, UniProt P05556+P13612); test: V well cell adhesion assay, VLA-4-mediated Jurkat cell binding to VCAM-1 (VLA-4 adhesion); settings: Jurkat cells on VCAM-1 Fc; single experiments run in triplicates
# T2 construct: endogenous in cells; host or cells: Jurkat cells
# Protocol: Cell-Based Assay to Determine the Selectivity of the Compounds Over the Integrin VLA-4 (VLA-4 Adhesion)
# Purpose of the Assay: This V well cell adhesion assay measures the effect of the compounds on VLA-4-mediated Jurkat cell binding to VCAM-1. The assay has been successfully used in the past to determine the selectivity of small molecule LFA-1 inhibitors over the integrin VLA-4.
# Experimental Protocol: The adhesion assay was performed as described above for the Jurkat/ICAM-1 V well adhesion assay. Briefly, plates were coated with anti-human IgG mAb and blocked with BSA as described above. Instead of ICAM-1, recombinant human VCAM-1/CD106 Fc chimera (R&D Systems) was coated onto the plates (0.3 μg/mL in coating buffer). After incubation, labelled Jurkat cells in binding buffer were transferred to the wells (20,000 cells/well). The plates were immediately centrifuged at 1000 rpm for 4 min at rt (Centrifuge Eppendorf 5810 R) setting the brakeoff. Non-adherent cells were quantified in the tip of the Vbottom well using a fluorescence reader. IC50 values of the compounds were calculated using the software GraphPad Prism 6.
# LFA-1 [2] = molecular target: T1, LFA-1; test: Flow cytometry, mAb MEM148 binding to LFA-1 expressed on leukocytes; settings: solvent ctrl = 1, Jurkat cells or PBMCs
# Protocol: Quantification of mAb MEM148 Binding to LFA-1 (mAb MEM148 Binding)
# Purpose of the Assay: This flow cytometry assay determines the effect of the compounds on the binding of the conformation-sensitive anti-LFA-1 mAb MEM148 to LFA-1 expressed on leukocytes. The mAb MEM148 detects an epitope which becomes exposed in activated LFA-1 [Yuki 2012]
# Experimental Protocol: The assay is performed as the flow cytometry assay described above.
# Briefly, Jurkat cells or PBMCs in assay buffer (50 mM Tris, 150 mM NaCl, 1 mM CaCl2, 1 mM MgCl2, 5 mM Glucose, 1.5% BSA, pH 7.3) were pre-incubated with the compounds and appropriate positive controls for 40 min at rt. After incubation, the cell-suspension was centrifuged, the supernatant discarded and PE-labelled anti-LFA-1 mAb MEM148 was directly added to the pellets. After pipetting up and down, the tubes were incubated for 30 min. at 37° C. in the dark. The pellet was washed twice with 1 mL PBS and resuspended in PBS. Antibody binding was quantified by flow cytometry. Mean fluorescence intensities (MFI) were calculated using the CellQuest software.
# LFA-1 [3] = molecular target: T1, LFA-1; test: Flow cytometry, mAb R7.1 binding to LFA-1 expressed on leukocytes; settings: Jurkat cells or human PBMCs, values of independent experiments; for inhibition at 1 µM: Jurkat
# Protocol: Measurement of mAb R7.1 binding to LFA-1 (mAb R7.1 binding)
# Purpose of the Assay: This flow cytometry assay determines the effect of the compounds on the binding of the anti-LFA-1 mAb R7.1 to LFA-1 expressed on leukocytes.
# Experimental Protocol: Jurkat cells or human peripheral blood mononuclear cells (PBMCs) were resuspended in assay buffer (50 mM Tris, 150 mM NaCl, 2 mM MgCl2, 1.5% BSA and 5 mM D-glucose monohydrate, pH7.2) at 2×10^6 cells/mL and 500 μL of this cell suspension (1×10^6 cells) were transferred into polypropylene tubes containing the test compounds diluted in 500 μL assay buffer. The samples were pre-incubated at 37° C. for 40 min, and centrifuged. The supernatants were removed and FITC-labelled anti-LFA-1 mAb R7.1 and PE-labeled anti-LFA-1 mAb TS2/4 (mAb TS2/4 is not affected by alpha I allosteric inhibitor binding to LFA-1) or appropriate isotype controls were added directly to each cell pellet. The pellets were then gently pipetted up and down and incubated on ice for 30 min in the dark. After the incubation step the cells were washed twice with PBS and resuspended in PBS.
# Antibody binding was analyzed by flow cytometry. Mean fluorescence intensities (MFI) were calculated using the CellQuest software. The values are expressed as % of solvent control (solvent control=100% binding).
# T2 sequence (P13612 34-1032): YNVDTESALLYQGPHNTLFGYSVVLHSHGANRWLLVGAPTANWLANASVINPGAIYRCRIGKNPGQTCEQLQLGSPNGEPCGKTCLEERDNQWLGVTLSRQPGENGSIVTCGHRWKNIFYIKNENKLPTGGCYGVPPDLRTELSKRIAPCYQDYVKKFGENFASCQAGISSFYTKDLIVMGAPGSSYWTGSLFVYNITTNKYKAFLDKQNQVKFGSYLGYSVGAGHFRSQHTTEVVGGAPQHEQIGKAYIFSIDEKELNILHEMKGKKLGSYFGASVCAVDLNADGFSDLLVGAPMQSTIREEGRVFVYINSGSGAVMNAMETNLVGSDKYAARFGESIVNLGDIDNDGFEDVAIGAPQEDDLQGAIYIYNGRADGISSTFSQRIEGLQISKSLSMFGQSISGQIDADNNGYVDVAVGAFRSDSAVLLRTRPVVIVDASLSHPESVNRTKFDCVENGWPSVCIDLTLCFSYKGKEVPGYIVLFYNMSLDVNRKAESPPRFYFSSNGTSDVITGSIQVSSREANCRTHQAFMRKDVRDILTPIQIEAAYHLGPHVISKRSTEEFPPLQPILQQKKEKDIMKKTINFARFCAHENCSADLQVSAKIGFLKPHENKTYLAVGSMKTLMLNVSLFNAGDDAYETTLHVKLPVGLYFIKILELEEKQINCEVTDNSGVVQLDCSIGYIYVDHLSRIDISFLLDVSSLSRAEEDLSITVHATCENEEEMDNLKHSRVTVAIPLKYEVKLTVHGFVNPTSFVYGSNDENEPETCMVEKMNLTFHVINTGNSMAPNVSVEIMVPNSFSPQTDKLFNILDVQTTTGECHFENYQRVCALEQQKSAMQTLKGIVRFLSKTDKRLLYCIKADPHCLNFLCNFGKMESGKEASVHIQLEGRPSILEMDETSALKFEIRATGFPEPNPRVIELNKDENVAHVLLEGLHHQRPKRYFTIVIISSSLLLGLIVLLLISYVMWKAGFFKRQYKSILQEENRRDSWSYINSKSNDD
# T2 sequence (P05556 21-798): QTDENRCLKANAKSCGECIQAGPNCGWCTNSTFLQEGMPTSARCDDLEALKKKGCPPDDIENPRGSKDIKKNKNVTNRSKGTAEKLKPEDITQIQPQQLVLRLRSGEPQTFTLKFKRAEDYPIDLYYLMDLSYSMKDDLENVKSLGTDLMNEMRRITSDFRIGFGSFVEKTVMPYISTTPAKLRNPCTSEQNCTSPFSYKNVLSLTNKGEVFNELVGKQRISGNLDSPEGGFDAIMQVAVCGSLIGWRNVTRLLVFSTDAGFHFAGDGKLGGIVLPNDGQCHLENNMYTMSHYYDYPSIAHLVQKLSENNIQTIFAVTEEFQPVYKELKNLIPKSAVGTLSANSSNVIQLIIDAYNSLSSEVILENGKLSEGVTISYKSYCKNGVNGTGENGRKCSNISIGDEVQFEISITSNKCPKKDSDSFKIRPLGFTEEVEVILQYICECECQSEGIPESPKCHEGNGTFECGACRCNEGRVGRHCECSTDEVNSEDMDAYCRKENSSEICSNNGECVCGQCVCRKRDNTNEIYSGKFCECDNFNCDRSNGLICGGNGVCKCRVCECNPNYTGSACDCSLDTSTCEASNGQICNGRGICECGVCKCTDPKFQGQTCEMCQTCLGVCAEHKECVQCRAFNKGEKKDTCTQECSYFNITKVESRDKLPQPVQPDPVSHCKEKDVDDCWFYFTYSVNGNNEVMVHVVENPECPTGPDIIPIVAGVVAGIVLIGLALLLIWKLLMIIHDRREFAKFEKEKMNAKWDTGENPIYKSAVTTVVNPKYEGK
# T1 sequence (P20701 26-1170): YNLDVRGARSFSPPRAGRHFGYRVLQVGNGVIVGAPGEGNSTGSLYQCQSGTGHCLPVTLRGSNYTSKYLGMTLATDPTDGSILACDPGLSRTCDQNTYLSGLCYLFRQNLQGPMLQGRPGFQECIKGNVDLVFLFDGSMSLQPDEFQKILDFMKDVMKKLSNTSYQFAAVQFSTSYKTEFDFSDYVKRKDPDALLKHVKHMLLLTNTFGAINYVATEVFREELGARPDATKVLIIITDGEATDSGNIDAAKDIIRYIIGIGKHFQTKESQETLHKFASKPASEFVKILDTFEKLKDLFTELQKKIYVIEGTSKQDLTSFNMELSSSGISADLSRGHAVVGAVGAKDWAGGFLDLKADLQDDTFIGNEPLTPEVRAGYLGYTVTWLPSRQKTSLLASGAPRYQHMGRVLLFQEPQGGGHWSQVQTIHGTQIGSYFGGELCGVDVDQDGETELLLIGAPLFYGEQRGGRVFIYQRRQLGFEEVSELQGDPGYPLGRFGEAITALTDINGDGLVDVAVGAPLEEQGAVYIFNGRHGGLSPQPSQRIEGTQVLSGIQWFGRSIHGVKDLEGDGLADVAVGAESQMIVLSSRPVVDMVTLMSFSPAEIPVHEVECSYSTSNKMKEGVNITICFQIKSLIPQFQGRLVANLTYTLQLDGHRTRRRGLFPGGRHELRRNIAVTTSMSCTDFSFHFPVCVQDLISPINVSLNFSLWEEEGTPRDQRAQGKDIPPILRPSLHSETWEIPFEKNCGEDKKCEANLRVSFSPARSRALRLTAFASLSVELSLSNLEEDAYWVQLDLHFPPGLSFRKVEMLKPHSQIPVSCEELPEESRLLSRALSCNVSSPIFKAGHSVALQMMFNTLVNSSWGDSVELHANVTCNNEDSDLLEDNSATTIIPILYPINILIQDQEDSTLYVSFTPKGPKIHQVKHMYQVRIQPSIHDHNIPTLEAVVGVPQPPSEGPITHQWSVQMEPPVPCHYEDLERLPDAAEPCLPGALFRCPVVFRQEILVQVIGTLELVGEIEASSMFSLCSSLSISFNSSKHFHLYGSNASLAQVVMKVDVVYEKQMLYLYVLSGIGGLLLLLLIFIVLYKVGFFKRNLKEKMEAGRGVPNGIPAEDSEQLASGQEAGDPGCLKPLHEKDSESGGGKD
# T1 sequence (P05107 23-769 partner): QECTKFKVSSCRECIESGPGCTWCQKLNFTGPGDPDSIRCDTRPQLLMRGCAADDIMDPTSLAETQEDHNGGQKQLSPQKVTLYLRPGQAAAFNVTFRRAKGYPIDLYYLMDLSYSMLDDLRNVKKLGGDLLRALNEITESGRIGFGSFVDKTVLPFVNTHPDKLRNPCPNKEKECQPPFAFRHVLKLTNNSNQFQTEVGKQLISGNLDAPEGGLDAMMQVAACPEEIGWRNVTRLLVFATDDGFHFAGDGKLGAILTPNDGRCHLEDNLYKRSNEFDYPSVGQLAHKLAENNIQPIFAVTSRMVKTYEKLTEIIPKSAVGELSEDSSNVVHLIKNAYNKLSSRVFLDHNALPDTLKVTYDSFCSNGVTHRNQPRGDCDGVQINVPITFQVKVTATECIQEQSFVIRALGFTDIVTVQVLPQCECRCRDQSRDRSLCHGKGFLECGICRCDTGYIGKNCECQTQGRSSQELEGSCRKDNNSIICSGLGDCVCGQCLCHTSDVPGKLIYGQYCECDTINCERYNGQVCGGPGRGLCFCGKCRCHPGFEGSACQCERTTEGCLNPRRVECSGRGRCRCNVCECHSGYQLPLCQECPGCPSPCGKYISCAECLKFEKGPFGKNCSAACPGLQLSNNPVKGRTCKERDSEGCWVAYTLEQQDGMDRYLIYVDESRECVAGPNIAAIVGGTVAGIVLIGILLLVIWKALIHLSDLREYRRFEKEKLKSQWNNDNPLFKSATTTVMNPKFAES
IC50 (LFA-1 [1]),IC50 (VLA-4),"mAb MEM148 binding, binding relative to solvent ctrl at 10 μM (LFA-1 [2])",inhibition at 1 µM (LFA-1 [3]),mAb R7.1 binding % inhibition at 1 μM (LFA-1 [3]),SMILES
45 ± 14 nM,> 10000 nM,,,,"C[C@]12C(=O)N(c3cc(Cl)cc(Cl)c3)C(=O)[C@H]1C2(c1ccc(C#N)cc1)c1ccc(C#N)cc1 (racemic) [4v (racemate), rac-4-[(1S,5S)-6-(4-Cyanophenyl)-3-(3,5-dichlorophenyl)-1-methyl-2,4-dioxo-3-azabicyclo[3.1.0]hexan-6-yl]benzonitrile]"
375 ± 204 nM,> 10000 nM,0.738,93.6%,,"CCOC(=O)[C@@]1(c2ccc(Br)cc2)[C@@H]2C(=O)N(c3cc(Cl)cc(Cl)c3)C(=O)[C@@]21C (racemic) [4′j (racemate), rac-Ethyl-(1 S, 5R, 6R)-6-(4-bromophenyl)-3-(3,5-dichlorophenyl)-1-methyl-2,4-dioxo-3-azabicyclo[3.1.0]-hexane-6-carboxylate]"
202 nM and 286 nM,> 10000 nM,,,98.4%,"CC12C(=O)N(c3cc(Cl)cc(Cl)c3)C(=O)C1C2(c1ccncc1)c1ccc(OC(F)(F)F)cc1 (single isomer, unassigned) [4x or 4′x diastereomer I (racemate), rac-(1 S, 5S, 6R)- and rac-(1 S, 5S, 6S)-3-(3,5-Dichlorophenyl)-1-methyl-6-(pyridin-4-yl)-6-[4-(trifluoromethoxy)phenyl]-3-azabicyclo[3.1.0]hexane-2,4-dione]"
18 ± 14 nM,> 10000 nM,0.937,98.6%,,"CC12C(=O)N(c3cc(Cl)cc(Cl)c3)C(=O)C1C2(c1ccc(C#N)cc1)c1ccc(OC(F)(F)F)cc1 (single isomer, unassigned) [4i/4′i diastereomer II (racemate), rac-4-[(1 S, 5S, 6S)- and rac-4-(1 S, 5S, 6R)-3-(3,5-Dichlorophenyl)-1-methyl-2,4-dioxo-6-[4-(trifluoro-methoxy)-phenyl]-3-azabicyclo[3.1.0]hexan-6-yl]benzonitrile]"
> 1000 nM,,,74.3%,,"O=C1[C@@H]2[C@H](C(=O)N1c1cc(Cl)cc(Cl)c1)C2(c1ccc(OC(F)(F)F)cc1)c1ccc(OC(F)(F)F)cc1 [Compound 4p, 3-(3,5-Dichlorophenyl)-6,6-bis[4-(trifluoromethoxy)phenyl]-3-azabicyclo[3.1.0.]hexane-2,4-dione]"
215 ± 134 nM,> 10000 nM,,,95.7%,"O=C1C2C(C(=O)N1c1cc(Cl)cc(Cl)c1)C2(c1ccncc1)c1ccc(OC(F)(F)F)cc1 (single isomer, unassigned) [4w or 4′w diastereomer I]"
> 1000 nM,,,,45.7%,"O=C1C2C(C(=O)N1c1cc(Cl)cc(Cl)c1)C2(c1ccncc1)c1ccc(OC(F)(F)F)cc1 (single isomer, unassigned) [4w or 4′w diastereomer II]"
> 1000 nM,,,,76.9%,"CC12C(=O)N(c3cc(Cl)cc(Cl)c3)C(=O)C1C2(c1ccncc1)c1ccc(OC(F)(F)F)cc1 (single isomer, unassigned) [4x or 4′x diastereomer II (racemate), rac-(1 S, 5S, 6R)- and rac-(1 S, 5S, 6S)-3-(3,5-Dichlorophenyl)-1-methyl-6-(pyridin-4-yl)-6-[4-(trifluoromethoxy)phenyl]-3-azabicyclo[3.1.0]hexane-2,4-dione]"
> 1000 nM,,,87.1%,,"N#Cc1ccc(C2(c3ccc(C#N)cc3)[C@@H]3C(=O)N(c4cc(Cl)cc(Cl)c4)C(=O)[C@@H]32)cc1 [Compound 4u, 4-[6-(4-Cyanophenyl)-3-(3,5-dichlorophenyl)-2,4-dioxo-3-azabicyclo[3.1.0]hexan-6-yl]benzonitrile]"
1540 ± 646 nM,,,80.5%,,"C[C@]12C(=O)N(c3cc(Cl)cc(Cl)c3)C(=O)[C@H]1[C@H]2c1ccccc1 (racemic) [4′d (racemate), rac-(1R,5S,6S)-3-(3,5-Dichlorophenyl)-1-methyl-6-phenyl-3-azabicyclo[3.1.0]hexane-2,4-dione]"
